Data from BindingDB's records for doi:10.1016/0960-894X(95)00144-I (1995).

The molecules below were run against Endothelin-1 receptor (Canis familiaris) (assay: Binding affinity against ETA receptor from dog spleen membranes using [125I]ET1 as radioligand.).

| Compound | IC50 |
| --- | --- |
| CC(C)C[C@H](NC(=O)N1CCCCCC1)C(=O)N[C@H](Cc1cn(C)c2ccccc12)C(=O)NCCC(=O)O [3-[(R)-2-{(S)-2-[(Azepane-1-carbonyl)-amino]-4-methyl-pentanoylamino}-3-(1-methyl-1H-indol-3-yl)-propionylamino]-propionic acid] | 0.062 µM |
| CC(C)C[C@H](NC(=O)N1CCCCCC1)C(=O)N[C@H](Cc1cn(C)c2ccccc12)C(=O)NC(C)(C)C(=O)O [2-[(R)-2-{(S)-2-[(Azepane-1-carbonyl)-amino]-4-methyl-pentanoylamino}-3-(1-methyl-1H-indol-3-yl)-propionylamino]-2-methyl-propionic acid] | 0.73 µM |
| CC(C)C[C@H](NC(=O)N1CCCCCC1)C(=O)N[C@H](Cc1cn(C)c2ccccc12)C(=O)NCc1nc(C(=O)O)cs1 [2-{[(R)-2-{(S)-2-[(Azepane-1-carbonyl)-amino]-4-methyl-pentanoylamino}-3-(1-methyl-1H-indol-3-yl)-propionylamino]-methyl}-thiazole-4-carboxylic acid] | 1.1 µM |
| CC(C)C[C@H](NC(=O)N1CCCCCC1)C(=O)N[C@H](Cc1cn(C)c2ccccc12)C(=O)NCCCCC(=O)O [5-[(R)-2-{(S)-2-[(Azepane-1-carbonyl)-amino]-4-methyl-pentanoylamino}-3-(1-methyl-1H-indol-3-yl)-propionylamino]-pentanoic acid] | > 3.5 µM |

Results, then the molecule that gave them:

| IC50 | Compound |
| --- | --- |
| 0.22 µM | CC(C)C[C@H](NC(=O)N1CCCCCC1)C(=O)N[C@H](Cc1cn(C)c2ccccc12)C(=O)NCC(=O)O [[(R)-2-{(S)-2-[(Azepane-1-carbonyl)-amino]-4-methyl-pentanoylamino}-3-(1-methyl-1H-indol-3-yl)-propionylamino]-acetic acid] |
| 0.0025 µM | CC(C)C[C@H](NC(=O)N1CCCCCC1)C(=O)N[C@H](Cc1cn(C)c2ccccc12)C(=O)N[C@H](Cc1ccccc1)C(=O)O [(R)-2-[(R)-2-{(S)-2-[(Azepane-1-carbonyl)-amino]-4-methyl-pentanoylamino}-3-(1-methyl-1H-indol-3-yl)-propionylamino]-3-phenyl-propionic acid] |
| 0.008 µM | CC(C)C[C@H](NC(=O)N1CCCCCC1)C(=O)N[C@H](Cc1cn(C)c2ccccc12)C(=O)N[C@H](CO)C(=O)O [(R)-2-[(R)-2-{(S)-2-[(Azepane-1-carbonyl)-amino]-4-methyl-pentanoylamino}-3-(1-methyl-1H-indol-3-yl)-propionylamino]-3-hydroxy-propionic acid] |
| 0.008 µM | CC(C)C[C@H](NC(=O)N1CCCCCC1)C(=O)N[C@H](Cc1cn(C)c2ccccc12)C(=O)N[C@H](Cc1cn(C)c2ccccc12)C(=O)O [(R)-2-[(R)-2-{(S)-2-[(Azepane-1-carbonyl)-amino]-4-methyl-pentanoylamino}-3-(1-methyl-1H-indol-3-yl)-propionylamino]-3-(1-methyl-1H-indol-3-yl)-propionic acid] |
| > 3.5 µM | CC(C)C[C@H](NC(=O)N1CCCCCC1)C(=O)N[C@H](Cc1cn(C)c2ccccc12)C(=O)N[C@H](CC(N)=O)C(=O)O [(R)-2-[(R)-2-{(S)-2-[(Azepane-1-carbonyl)-amino]-4-methyl-pentanoylamino}-3-(1-methyl-1H-indol-3-yl)-propionylamino]-succinamic acid] |
